Publication PMC12040169 (PLOS Biology, 2025)

test: in vitro; settings: human, hela cells, % viability

In order of rising viability at 28.5 h, 10 µM:
1. COC(=O)c1ccc(OCCn2nc(C)c(C)c(C#N)c2=O)cc1 [CBK305676]  69.5%
2. Cc1ccc2c(c1)nc(-c1ccc(O)cc1)n2Cc1ccc(O)cc1 [CBK291226]  77.4%
3. CCN(CC)C(=O)N1CCN(Cc2cccc(OC)c2)C[C@@H]1C [CBK284268]  78.8%
4. Cc1ccc(S(=O)(=O)c2ccc(C)c(S(=O)(=O)N3CCCC3)c2)cc1S(=O)(=O)N1CCCC1 [CBK261772]  78.9%
5. COc1nccc(N2CCN(C(=O)C3CC3)CC(O)C2)c1C#N (stereo not drawn) [CBK306613]  79.1%
6. Cc1[nH]nc(Nc2ccc(C(=O)O)cc2)c1[N+](=O)[O-] [CBK262726]  80%
7. O=S(=O)(NC1CCN(Cc2ccccc2)CC1)c1cccc2nsnc12 [CBK062029]  80.8%
8. O=C(Cc1ccc(F)cc1)Nc1nc(-c2cccs2)cs1 [CBK287736]  82.3%
9. O=C(CSc1nc(-c2ccccc2)cc(=O)[nH]1)NCc1ccccc1 [CBK287734]  82.7%
10. CCn1cc(-c2cncn2CCCN2CCCCC2)cn1 [CBK281767]  82.9%
11. Cc1ccccc1-n1nc(C)c(CN2CCC(O)C(C)C2)c1C (stereo not drawn) [CBK282739]  84.2%
12. CSc1ccccc1C(=O)NCCCn1ccnc1 [CBK269749]  85.3%
13. CCCC(=O)N1CCC(c2nnc(-c3ccsc3)o2)CC1 [CBK283377]  85.5%
14. COc1ccc(NS(=O)(=O)c2ccc(C)cc2)cn1 [CBK010484]  85.8%
15. COc1ccc(-c2n[nH]cc2/C=N/NC(=O)c2cc(Br)ccc2O)c(OC)c1 [CBK262067]  85.9%
16. Cc1cc(S(=O)(=O)NCC(C)n2nc(C)c(C)c2C)ccc1F (stereo not drawn) [CBK282010]  87.4%
17. CCCCOC(=O)CCn1c(=S)oc2ccccc21 [CBK019181]  87.9%
18. Cc1cnc(CNC(=O)c2ccc3nc[nH]c3c2)cn1 [CBK153318]  88.4%
19. O=C(NC1CCCCC1)N1CC[C@H](c2nc3ccccc3o2)C1 [CBK289372]  88.4%
20. CC(=O)N1CCN(c2ccc(NC(=O)C3C(C(=O)O)C3(C)C)cc2)CC1 (stereo not drawn) [CBK300545]  88.6%
21. CC1CCCN(Cc2c(C3CCNCC3)[nH]c3ncccc23)C1C (stereo not drawn) [CBK285084]  89.1%
22. Cc1ccc(C2CCCN2C(=O)Cn2cccc(C(=O)NCc3ccccc3)c2=O)cc1C (stereo not drawn) [CBK286074]  89.5%
23. COc1nc2nc(N)nc(N)c2nc1C [CBK025669]  90.1%
24. CCCn1cc(NC(=O)C2(c3ccccc3)CCOCC2)ccc1=O [CBK304905]  90.1%
25. COc1cccc(CNC2CC2)c1OCc1ccccc1 [CBK270009C]  90.6%
26. COCCn1c(=O)n(Cc2ccccc2)c2cccnc21 [CBK283964]  91%
27. COc1ccc([C@@]23CC[C@@H](NS(=O)(=O)Cc4ccccc4)C[C@@H]2N(C)CC3)cc1OC [CBK056665T]  91.4%
28. O=C(Nc1cccc(O)c1)c1ccc(NC(=O)C2CCCO2)cc1 (stereo not drawn) [CBK269746]  91.6%
29. CCC1CCCCN1C(=O)Cc1c(C)nc(-c2cccnc2)[nH]c1=O (stereo not drawn) [CBK306240]  91.6%
30. Cc1nccn1CC(=O)N1CCCC(C)(C(=O)NC2CCCC2)C1 (stereo not drawn) [CBK282210]  91.8%
31. O=C(Nc1nnc(C(F)(F)F)s1)c1ccc(F)c(Cl)c1 [CBK076831]  92.2%
32. Cc1cc(C)c(NC(=O)C2CCCCN2C23CC4CC(CC(C4)C2)C3)c(C)c1 (stereo not drawn) [CBK261559C]  92.6%
33. N#C/C(C(=O)Nc1ccccc1)=C(/O)c1nn(-c2ccccc2)c2c1CSc1ccccc1-2 [CBK017685]  92.7%
34. CSCCN1CCC(Oc2nccnc2OCCN2CCOCC2)CC1 [CBK082935]  92.9%
35. O=C(Cc1ccccc1)N/N=C/C1CC2CC1CC2C(F)(F)F (stereo not drawn) [CBK021488]  93%
36. CCn1c(CC2CCN(c3ncc(C#N)c(N)n3)CC2)nn(C)c1=O [CBK306788]  93.3%
37. Cc1ccc(S(=O)(=O)NC(CC(=O)Nc2ccc(Br)cc2)c2ccccc2)cc1 (stereo not drawn) [CBK265110]  93.3%
38. CC(=O)NC1(c2ccc(F)cc2)CCN(CC(=O)NCC2CC2)CC1 [CBK283614]  93.9%
39. C(=C\c1nccnc1OCCn1cccc1)/c1ccccc1 [CBK106884]  94%
40. COc1cc(C)nc(NC(=O)Nc2cccc(Cl)c2)n1 [CBK269828]  94.2%
41. Cc1ccc(OCc2nc(C)c(C(=O)N3CCCC(C)C3)s2)cc1 (stereo not drawn) [CBK305356]  94.3%
42. CN(CC1CCCOC1)C(=O)c1ncsc1Nc1ccccc1 (stereo not drawn) [CBK304250]  94.4%
43. CNC(=O)NC(=O)C1CCN(CCOc2ccccc2)CC1 [CBK034959]  94.7%
44. CC(C)(C)OC(=O)N1CCN(c2cc(NCc3ccccc3)ncn2)CC1 [CBK000137]  94.7%
45. COc1cccc(NC(=O)c2sc(N)nc2-c2ccccc2)c1 [CBK072023]  95.2%
46. COCc1cccc(-c2nccnc2OC)c1 [CBK106956]  95.2%
47. COc1ccc(C(=O)Nc2cccc(-c3nc4ccccc4[nH]3)c2)c(OC)c1 [CBK072662]  95.4%
48. O=C(O)c1cccc(NS(=O)(=O)c2ccc(F)cc2F)c1 [CBK155084]  95.4%
49. CN(CCN1CCCCC1)C(=O)C1Cc2cc(Cl)ccc2O1 (stereo not drawn) [CBK282640]  95.4%
50. CC(C)c1ccc(NC(=O)NC(=O)C2CCN(CCOc3ccc4ccccc4c3)CC2)c(C(C)C)c1 [CBK034883]  96%
51. C=CCn1c(Cc2csc(NC(=O)c3ccc([N+](=O)[O-])cc3)n2)n[nH]c1=S [CBK295290]  96.2%
52. C=CCn1c(SCC(=O)Nc2ccccn2)nnc1-c1ccc(Br)cc1 [CBK022413]  96.3%
53. CC(=O)Oc1cccc(N2C(=O)c3ccc(Oc4cccc(N)c4)cc3C2=O)c1 [CBK261099]  96.4%
54. O=S(=O)(O)c1cc(S(=O)(=O)O)c2cc(O)c(S(=O)(=O)O)cc2c1 [CBK278319N]  96.7%
55. CC(C)c1ccc(S(=O)(=O)N2CCN(c3ccc(C#N)cc3)CC2)cc1 [CBK044404]  97.3%
56. O=C(Nc1ccccc1C(=O)O)c1cccc(S(=O)(=O)NCc2ccccc2)c1 [CBK261258]  98.1%
57. O=C(O)c1ccc(CNC(=S)NCC2CCCO2)cc1 (stereo not drawn) [CBK266908]  98.2%
58. CCOCC1CCCN1C(=O)Nc1ccc2sc(C(=O)N(C)C)cc2c1 (stereo not drawn) [CBK306601]  98.3%
59. O=C(c1ccc(N2CCN(C3CC(=O)N(Cc4cccs4)C3=O)CC2)cc1)c1cccnc1 (stereo not drawn) [CBK269040]  98.5%
60. Cc1ccnc(SCCn2c(N(C)Cc3ccccc3)nc3c2c(=O)n(C)c(=O)n3C)n1 [CBK269394]  98.9%
61. COc1ccc(CN(C(=O)CCN2C(=O)c3ccccc3S2(=O)=O)c2ccccc2O)cc1 [CBK265973]  99.4%
62. CCNC(=O)N1CC2(CCN(CCC(N)=O)CC2)c2ccccc21 [CBK144598T]  99.6%
63. O=S(=O)(c1ccc2ccccc2c1)N1CCCCC1CO (stereo not drawn) [CBK200055]  100%
64. CCc1ccc(OCC(=O)Nc2ccc3oc(-c4ccc(F)cc4Cl)nc3c2)cc1 [CBK265010]  100%
65. Cn1c(CO)nnc1[C@H]1C[C@@H](NC(=O)COc2ccc(Cl)c(Cl)c2)C1 [CBK306667]  101%
66. Cc1cc2cccc(NC(=O)NCc3cncn3CC(C)C)c2o1 [CBK306715]  101%
67. Cc1ccc2oc(-c3cc(NC(=O)c4nc[nH]n4)ccc3O)nc2c1 [CBK266900]  101%
68. O=C(Nc1ccc(I)cc1)c1ccc(CN2CCc3ccccc3C2)cc1 [CBK262672]  101%
69. CCCC/C=C/c1cnc(N)c(Nc2ccc(OC)cc2C)n1 [CBK064090]  101%
70. COC(=O)c1ccccc1NC(=O)C1CCCN(S(=O)(=O)c2cc(Cl)ccc2Cl)C1 (stereo not drawn) [CBK268797]  101%
71. NC(=O)c1c(NC(=O)C2CC(=O)OC23CCCCC3)sc2c1CCCCC2 (stereo not drawn) [CBK264189]  102%
72. CN1C[C@]2(CC[C@@H](C(=O)NC3CC3)CC2)Oc2ccccc2C1=O [CBK282610]  102%
73. O=C(Cc1ccccc1)Nc1nc(OCC(F)(F)F)cnc1-c1ccsc1 [CBK145298]  102%
74. CN(C)CCN(C)Cc1ccccc1O [CBK261875]  103%
75. Oc1cccnc1N1CCN(Cc2ccccc2)CC1 [CBK045849]  104%
76. O=C(Cc1ccccn1)N1CCc2ccccc2C1 [CBK200334]  104%
77. Clc1ccc(OCCCn2ccnc2)c(CN2CCSCC2)c1 [CBK307194]  104%
78. O=C(c1cscn1)N1C2CCC1CC(O)(c1ccco1)C2 (stereo not drawn) [CBK284135]  105%
79. CC(C(=O)N1CCC(c2cc3cccnc3[nH]2)CC1)N1CCCC1=O (stereo not drawn) [CBK282705]  105%
80. COc1cccc(C(=O)NNC(=O)c2ccc(F)cc2)c1 [CBK261705]  106%
81. CCCC(=O)c1ccc(S(=O)(=O)N2CCCN(Cc3ccc(C#N)cc3)CC2)cc1 [CBK062895]  106%
82. O[C@H]1[C@H](NCc2ccco2)[C@H]2CO[C@H](O2)[C@@H]1N1CCCCC1 [CBK288825]  106%
83. Nc1c(-c2ccsc2)cnc2ncccc12 [CBK083707]  108%
84. CCOC(=O)c1sc(Nc2nc(C)cc(OC)n2)nc1C [CBK264822]  108%
85. Cc1cccnc1C(NC(=O)C1CCN(Cc2cccn2C)CC1)c1ccc(Cl)cc1 (stereo not drawn) [CBK148174]  110%
86. CC1(C)Cc2c(sc(NC(=O)Cc3ccccc3)c2C(=O)O)CO1 [CBK264354]  110%
87. Fc1ccc2nc(NCC3CCCO3)sc2c1 (stereo not drawn) [CBK287647]  110%
88. CCc1nc2ccccc2n1CC(=O)N(C)C(C)c1cccnc1 (stereo not drawn) [CBK304017]  110%
89. O=C(O)CCNS(=O)(=O)c1ccc(Cl)c(Cl)c1 [CBK268815]  112%
90. COc1ccc(Br)c(C(=O)Nc2cc(N3CCNCC3)c3occc3c2)c1 [CBK061757C]  115%
